Data on 31 compounds can be found in patent US7741479B2, “Urea inhibitors of MAP kinases” (Locus Pharmaceuticals, Inc., priority 2004, dated 2010).

The target of the assay is T1, p38 (Homo sapiens, UniProt Q16539).
T1 construct: made in house
Description: Protein Kinase Assay (33P incorporation from γ-[33P]ATP into GST-ATF-2 substrate). To be noted: for inhibition at 10 µM: compound at 10 μM. In kind it is biochemical. The method, then: Human non-activated p38 kinase (MW=43 kDa) was purified according to the protocol described herein. Chemicals were purchased from Calbiochem. Fluorescence characterizations were conducted using a Cary Eclipse (Varian Analytical Instruments, Walnut Creek, Calif.). Research-grade CM5 sensor chips and coupling reagents (N-ethyl-N′-dimethylaminopropylcarbodiimide (EDC) N-hydroxysuccinimide (NHS), and 1 M ethanolamine HCl, pH 8.5) were purchased from Biacore AB (Uppsala, Sweden). The biosensor analyses were conducted using a Biacore 3000 SPR instrument. The kinetic analyses were carried on a Molecular Devices spectrophotometer (Molecular Devices Corporation, CA, USA).
Protein Kinase Assay. The protein kinase activity of p38 was determined by measuring the incorporation of ^33P from γ-[^33P]ATP into the GST-ATF-2 substrate, amino acids 19-96 (Upstate, NY USA). […] Compounds were preincubated with 10 nM p38 for 20 min at 30° C.; the reactions were initiated by the addition of GST-ATF2 and ATP and incubated for 70 min at 30° C. before being stopped by the addition of 10 μL of 600 mM phosphoric acid. The phosphorylated substrate was captured on phosphocellulose 96-well plate (Millipore MAPHNOB 10), washed with 100 mM phosphoric acid, and counted in a BeckmenCoulter LS6500 liquid scintillation counter.

The mark [1] stands for this setting: compound at 3 μM, read-out: Protein Kinase (% Inhibition at 3 μM).

Like-named read-outs stand apart in the source and are kept apart here.

T1 sequence (Q16539 whole entry): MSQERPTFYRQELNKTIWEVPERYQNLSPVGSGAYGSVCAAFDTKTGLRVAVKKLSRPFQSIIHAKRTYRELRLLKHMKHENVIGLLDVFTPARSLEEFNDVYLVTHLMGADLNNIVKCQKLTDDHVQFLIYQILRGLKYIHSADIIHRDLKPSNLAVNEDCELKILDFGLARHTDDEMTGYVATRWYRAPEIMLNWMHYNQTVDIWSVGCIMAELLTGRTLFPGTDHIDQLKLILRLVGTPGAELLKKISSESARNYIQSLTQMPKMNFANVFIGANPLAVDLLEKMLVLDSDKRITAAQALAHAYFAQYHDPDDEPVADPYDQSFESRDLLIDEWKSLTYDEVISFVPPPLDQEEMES

`CC(C)(C)c1cc(C(=O)N2CCS(=O)(=O)CC2)c(NC(=O)Nc2cccc3ccccc23)s1` [Example 2, 1-[5-tert-butyl-3-(1,1-dioxo-1λ^6-thiomorpholine-4-carbonyl)thiophen-2-yl]-3-naphthalen-1-ylurea] gave an inhibition at 10 µM of 76 to 100%.
Same read-out and setting: the value for `CC(C)(C)c1cc(NC(=O)Nc2ccc(Cl)cc2)c(C(=O)N2CCS(=O)(=O)CC2)s1` [Example 10, 1-[5-tert-butyl-2-(1,1-dioxo-1λ^6-thiomorpholine-4-carbonyl)thiophen-3-yl]-3-(4-chlorophenyl)urea] was 76 to 100%; that for `CC(C)(C)c1cc(C(=O)N2CCS(=O)(=O)CC2)c(NC(=O)NC2CCc3ccccc32)s1` (stereo not shown) [Example 30, 1-[5-tert-butyl-3-(1,1-dioxo-1λ^6-thiomorpholine-4-carbonyl)thiophen-2-yl]-3-indan-1-ylurea] was 51 to 75%.
As for `CC(C)(C)c1cc(C(=O)N2CCNC(=O)CC2)c(NC(=O)Nc2ccc(C#N)cc2C(F)(F)F)s1` [Example 89, 1-[5-tert-butyl-3-(5-oxo-[1,4]diazepane-1-carbonyl)thiophen-2-yl]-3-(4-cyano-2-trifluoromethylphenyl)urea], the inhibition at 3 µM under setting [1] was in the range of 76 to 100%.
`CC(C)(C)c1cc(C(=O)NCc2cccnc2)c(NC(=O)Nc2cccc(Cl)c2Cl)s1` [Example 130, 5-tert-butyl-2-[3-(2,3-dichlorophenyl)ureido]thiophene-3-carboxylic acid (pyridin-3-ylmethyl)amide] yielded an inhibition at 0.5 µM (same procedure at 0.5 μM) of 76 to 100%.
In turn, `CC(C)(C)c1cc(CN2CCOCC2)c(NC(=O)Nc2cccc3ccccc23)s1` [Example 19, 1-(5-tert-butyl-3-morpholin-4-ylmethylthiophen-2-yl)-3-naphthalen-1-ylurea] gave an inhibition at 10 µM of 51 to 75%.
With `CC(C)(C)c1cc(C(=O)N2CCNC(=O)CC2)c(NC(=O)Nc2ccc3c(c2)OC(F)(F)O3)s1` [Example 74, 1-[5-tert-butyl-3-(5-oxo-[1,4]diazepane-1-carbonyl)-thiophen-2-yl]-3-(2,2-difluoro-benzo[1,3]dioxol-5-yl)urea], the inhibition at 3 µM under setting [1] is 76 to 100%.
As to `CCC1C(=O)NCCN1C(=O)c1cc(C(C)(C)C)sc1NC(=O)Nc1cccc(Cl)c1Cl` (stereo not shown) [Example 134, 1-[5-tert-Butyl-3-(2-ethyl-3-oxopiperazine-1-carbonyl)thiophen-2-yl]-3-(2,3-dichlorophenyl)urea], under “same procedure at 0.5 μM”, the inhibition at 0.5 µM lay in the range of 76 to 100%.
On the same count and under the same terms, the value for `CC(C)(C)c1cc(C(=O)Nc2ccc3nn[nH]c3c2)c(NC(=O)Nc2cccc(Cl)c2Cl)s1` [Example 133, 5-tert-Butyl-2-[3-(2,3-dichlorophenyl)ureido]thiophene-3-carboxylic acid (3H-benzotriazol-5-yl)amide] was 76 to 100%.
With `CC(C)(C)c1cc(C(=O)N2CCNS(=O)(=O)CC2)c(NC(=O)Nc2ccc(Cl)cc2)s1` [Example 39, 1-[5-tert-butyl-3-(1,1-dioxo-1λ^6-[1,2,5]thiadiazepane-5-carbonyl)thiophen-2-yl]-3-(4-chlorophenyl)urea], the inhibition at 3 µM (compound at 3 μM (noted beside the value in Table 1), read-out: Protein Kinase (% Inhibition)) fell in the range of 76 to 100%.
Compound `CC(C)(C)c1cc(C(=O)N2CCNC(=O)C2)c(NC(=O)Nc2cccc3ccccc23)s1` [Example 35, 1-[5-tert-butyl-3-(3-oxopiperazine-1-carbonyl)thiophen-2-yl]-3-naphthalen-1-ylurea] came in with an inhibition at 10 µM of 51 to 75%.
For the compound `CC(C)(C)c1nc(C(=O)N2CCNC(=O)C2)c(NC(=O)Nc2cccc3ccccc23)s1` [Example 83, 1-[2-tert-butyl-4-(3-oxopiperazine-1-carbonyl)thiazol-5-yl]-3-naphthalen-1-ylurea], the inhibition at 3 µM under setting [1] is 76 to 100%.
`CC(C)(C)c1cc(NC(=O)Nc2ccc(Cl)cc2)n(C(=O)N2CCS(=O)(=O)CC2)n1` [Example 17, 1-[5-tert-butyl-2-(1,1-dioxo-1λ^6-thiomorpholine-4-carbonyl)-2H-pyrazol-3-yl]-3-(4-chlorophenyl)urea] registered an inhibition at 10 µM of 76 to 100%.
Take `CC(C)(C)c1cc(C(=O)N2CCS(=O)(=O)CC2)c(NC(=O)Nc2cccc(Cl)c2Cl)s1` [Example 58, 1-[5-tert-butyl-3-(1,1-dioxo-1λ^6-thiomorpholine-4-carbonyl)thiophen-2-yl]-3-(2,3-dichlorophenyl)urea]: the inhibition at 3 µM under setting [1] fell in the range of 76 to 100%.
On the same count and under the same terms, the value for `CC(C)(C)c1cc(C(=O)N2CCS(=O)(=O)CC2)c(NC(=O)Nc2ccc3ncoc3c2)s1` [Example 72, 1-Benzoxazol-6-yl-3-[5-tert-butyl-3-(1,1-dioxo-1λ^6-thiomorpholine-4-carbonyl)thiophen-2-yl]urea] was 76 to 100%.
`CC(C)(C)c1cc(CN2CCSCC2)c(NC(=O)Nc2cccc3ccccc23)s1` [Example 20, 1-(5-tert-butyl-3-thiomorpholin-4-ylmethylthiophen-2-yl)-3-naphthalen-1-yl-urea] had an inhibition at 10 µM of 0 to 25%.
For the compound `CC(C)(C)c1cc(C(=O)N[C@H]2CC(=O)NC2=O)c(NC(=O)Nc2cccc3ccccc23)s1` [Example 86], the inhibition at 3 µM under setting [1] is 76 to 100%.
`CC(C)(C)c1cc(C(=O)N2CCS(=O)(=O)CC2)c(NC(=O)Nc2ccnc3ccccc23)s1` [Example 31, 1-[5-tert-butyl-3-(1,1-dioxo-1λ^6-thiomorpholine-4-carbonyl)thiophen-2-yl]-3-quinolin-4-ylurea] gave an inhibition at 10 µM of 51 to 75%.
For the setting “same procedure at 0.5 μM”, `CC(C)(C)c1cc(C(=O)NCc2cccnc2)c(NC(=O)Nc2ccc3ccccc3c2)s1` [Example 132, 5-tert-Butyl-2-(3-naphthalen-2-yl-ureido)thiophene-3-carboxylic acid (pyridin-3-ylmethyl)amide] showed an inhibition at 0.5 µM of 76 to 100%.
With `CC(C)(C)c1cc(C(=O)N2CCS(=O)(=O)CC2)c(NC(=O)Nc2cc(Cl)cc(Cl)c2)s1` [Example 68, 1-[5-tert-butyl-3-(1,1-dioxo-1λ^6-thiomorpholine-4-carbonyl)thiophen-2-yl]-3-(3,5-dichlorophenyl)urea], under setting [1], the inhibition at 3 µM was in the range of 76 to 100%.
On to `CC(C)(C)c1cc(C(=O)N2CCNS(=O)(=O)CC2)c(NC(=O)Nc2ccc(C#N)c3ccccc23)s1` [Example 56, 1-[5-tert-butyl-3-(1,1-dioxo-1λ^6-[1,2,5]thiadiazepane-5-carbonyl)thiophen-2-yl]-3-(4-cyanonaphthalen-1-yl)urea], for which the inhibition at 3 µM under setting [1] lay in the range of 76 to 100%.
As to `CC(C)(C)c1cc(C(=O)N2CCS(=O)(=O)CC2)c(NC(=O)Nc2cccc3cccnc23)s1` [Example 29, 1-[5-tert-butyl-3-(1,1-dioxo-1λ^6-thiomorpholine-4-carbonyl)thiophen-2-yl]-3-quinolin-8-ylurea], the inhibition at 10 µM is 0 to 25%.
Take `CC(C)(C)c1cc(NC(=O)Nc2ccc3ccccc3c2)c(N2CCS(=O)(=O)CC2)s1` [Example 27, 1-[5-tert-butyl-2-(1,1-dioxo-1λ^6-thiomorpholin-4-yl)thiophen-3-yl]-3-naphthalen-2-ylurea]: where the note is “compound at 0.5 μM (noted beside the value in Table 1)”, the inhibition at 0.5 µM was 51 to 76%.
As for `CC(C)(C)c1cc(NC(=O)Nc2cccc3ccccc23)c(C(=O)N2CCNS(=O)(=O)CC2)s1` [Example 51, 1-[5-tert-butyl-2-(1,1-dioxo-1λ^6-[1,2,5]thiadiazepane-5-carbonyl)thiophen-3-yl]-3-naphthalen-1-ylurea], the inhibition at 3 µM under setting [1] was 76 to 100%.
`CC(C)(C)c1cc(C(=O)N2CCOCC2)c(NC(=O)Nc2cccc3ccccc23)s1` [Example 16, 1-[5-tert-butyl-3-(morpholine-4-carbonyl)thiophen-2-yl]-3-naphthalen-1-yl-urea] displayed an inhibition at 10 µM of 26 to 50%.
As for `CC(C)(C)c1cc(NC(=O)Nc2cccc3ccccc23)c(C(=O)N2CCNC(=O)C2)s1` [Example 52, 1-[5-tert-butyl-2-(3-oxopiperazine-1-carbonyl)thiophen-3-yl]-3-naphthalen-1-ylurea], under setting [1], the inhibition at 3 µM is 76 to 100%.
The same measure, in the same setting: next, `CC(C)(C)c1cc(C(=O)N2CCNC(=O)C2)c(NC(=O)Nc2ccc(C#N)c3ccccc23)s1` [Example 57, 1-[5-tert-butyl-3-(3-oxopiperazine-1-carbonyl)thiophen-2-yl]-3-(4-cyano-naphthalen-1-yl)urea]: 76 to 100%.
Consider `CC(C)(C)c1cc(C(=O)N2CCNC(=O)CC2)c(NC(=O)NC2CCNCC2)s1` [Example 120, 1-[5-tert-Butyl-3-(5-oxo-[1,4]diazepane-1-carbonyl)thiophen-2-yl]-3-piperidin-4-ylurea], for which the protein kinase inhibition (tested at 3 μM according to the procedure described above) is 0-25%.
With `Cc1cc(NC(=O)Nc2sc(C(C)(C)C)cc2C(=O)N2CCS(=O)(=O)CC2)cc(C)n1` [Example 70, 1-[5-tert-butyl-3-(1,1-dioxo-1λ^6-thiomorpholine-4-carbonyl)thiophen-2-yl]-3-(2,6-dimethylpyridin-4-yl)urea], under setting [1], the inhibition at 3 µM is 26 to 50%.
The same measure, in the same setting: the value for `CC(C)(C)c1cc(C(=O)N2CCNC(=O)CC2)c(NC(=O)Nc2ccc3c(c2)OCO3)s1` [Example 73, 1-Benzo[1,3]dioxol-5-yl-3-[5-tert-butyl-3-(5-oxo-[1,4]diazepane-1-carbonyl)-thiophen-2-yl]urea] was 76 to 100%.
Compound `CC(C)(C)c1cc(C(=O)N2CCS(=O)(=O)CC2)c(NC(=O)Nc2ccc3c(c2)NC(=O)CC3)s1` [Example 33, 1-[5-tert-butyl-3-(1,1-dioxo-1λ^6-thiomorpholine-4-carbonyl)thiophen-2-yl]-3-(2-oxo-1,2,3,4-tetrahydroquinolin-7-yl)urea] yielded an inhibition at 10 µM of 0 to 25%.
